Three compounds from US7173134B2, “Selective RXR ligands” (SmithKline Beecham Corporation, priority 2001, dated 2007) can be followed below.

The target in one assay is T1, full length human RXRα (Homo sapiens, UniProt P19793).
T1 construct: These cells were transfected with full length human RXRα; expressed in transfected cells; host or cells: CV-1 (monkey kidney cell line)
T1 sequence (P19793 1-462): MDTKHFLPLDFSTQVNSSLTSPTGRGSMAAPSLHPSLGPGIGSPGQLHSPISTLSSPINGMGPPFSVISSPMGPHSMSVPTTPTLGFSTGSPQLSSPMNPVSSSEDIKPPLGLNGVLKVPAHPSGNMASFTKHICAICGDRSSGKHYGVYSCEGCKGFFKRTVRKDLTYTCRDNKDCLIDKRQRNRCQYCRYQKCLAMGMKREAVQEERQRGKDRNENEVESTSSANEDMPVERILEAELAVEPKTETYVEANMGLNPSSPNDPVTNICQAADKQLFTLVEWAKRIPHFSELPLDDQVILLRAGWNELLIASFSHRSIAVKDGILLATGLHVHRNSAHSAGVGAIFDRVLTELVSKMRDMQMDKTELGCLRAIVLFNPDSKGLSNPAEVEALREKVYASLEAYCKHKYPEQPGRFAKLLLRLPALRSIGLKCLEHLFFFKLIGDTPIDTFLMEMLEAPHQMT
The assay can be described thus: Transient transfection assay in CV-1 cells (CRBP II-tk-SPAP reporter). It counts as cell-based. Particulars: CV-1 cells transfected with human RXRα and CRBP II-tk-SPAP reporter; 24 h incubation; SPAP activity. The procedure: Transcriptional activity of the compounds was measured in a monkey kidney cell line (CV-1). These cells were transfected with full length human RXRα and the natural response element, cellular retinol binding protein type II in a reporter gene construct, (CRBP II-tk-SPAP), consisting of HSV tk promoter, and the secreted placental alkaline phosphatase reporter gene. CV-1 cells were plated at a density of 24,000 cells per well in high glucose DMEM supplemented with 10% charcoal/dextran-treated FBS. Transfection mixes contained 4 ng of receptor expression vector, 8 ng of reporter plasmid, 25 ng of β-galactosidase expression vector (used as an internal control), and 43 ng of carrier plasmid. Transfections were performed with Lipofectamine according to the manufacturer's instructions. Drug dilutions were prepared in phenol red-free DMEM/F-12 with 15 mM HEPES supplemented with 10% charcoal-stripped, delipidated calf serum. Cells were incubated for 24 h in the presence of drugs, after which the medium was sampled and assayed for SPAP activity.
B-galactosidase, which measures transfection efficiency activity, was determined by using 3.6 mM o-nitrophenyl-D-galactopyranoside in 0.1 M sodium phosphate pH 7.2 buffer containing 0.13% Triton X-100 as substrate. These plates were read on a Molecular Devices Vmax spectrophotometer, at a 405 nm endpoint reading. Data were reduced using RoboFit.
The results were expressed as percent of maximum or fold activation calculated by the following formulas: fold activation=(((SPAP−SPAPsubstrate blank avg.)/(β-gal−β-gal substrate blank avg.))−DMSO vehicle avg.)/DMSO vehicle avg, and % max.=(fold activation of unknown/positive control fold activation avg.)×100.

A further assay concerns the target T2, hRXRα (Homo sapiens, UniProt P19793).
T2 construct: polyhistidine (N); made in house; host or cells: E. coli
T2 sequence (P19793 227-458 limits assumed): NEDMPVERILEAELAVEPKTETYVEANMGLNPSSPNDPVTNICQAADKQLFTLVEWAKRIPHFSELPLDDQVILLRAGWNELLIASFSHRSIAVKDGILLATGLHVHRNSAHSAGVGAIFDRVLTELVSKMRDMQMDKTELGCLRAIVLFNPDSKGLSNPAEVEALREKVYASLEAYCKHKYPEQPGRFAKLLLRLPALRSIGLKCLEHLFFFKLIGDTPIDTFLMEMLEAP
The experiment in a line: Scintillation Proximity Assay (SPA) binding assay, 9-cis[3H]-retinoic acid radioligand. The settings on record: RXRα ligand binding domain on SPA beads; radioligand 9-cis[3H]-retinoic acid; read-out: Apparent pKi (converted). The procedure:
The compounds were tested for their ability to bind to hRXRα using a Scintillation Proximity Assay (SPA) as is known in the art. The RXRα ligand binding domain (LBD) was expressed in E. coli as an amino-terminal polyhistidine tagged fusion protein. The LBD was then labeled with biotin and immobilized on streptavidin-modified scintillation proximity beads.
9-cis[3H]-Retinoic acid (9-cis) was the radioligand used for the assay. To each well to be assayed was added the desired concentration of the previously prepared solution of 9-cis previously incubated with receptor-coated SPA bead slurry. The plates were incubated for at least 1 hour at room temperature and bound radioactivity for each well was determined in a Wallac 1450 Microbeta counter.
In this specification, pKi=−log of the concentration of the test compound required to achieve an apparent Ki value according to the equation Ki=IC50/1+[L]/Kd, where IC50=the concentration of test compound required to inhibit 50% of the specific binding of the radioligand, [L] is the concentration of the radioligand used, and Kd is the dissociation constant for the radioligand at the receptor.

Bounds are passed on as bounds.

What is called EC50 is the midpoint of the concentration-response curve. Regarding `COc1cc2c(cc1Cc1coc(/C=C/C(=O)O)c1)C(C)(C)CCC2(C)C` [Example 19, (2E)-3-{4-[(3-Methoxy-5,5,8,8-tetramethyl-5,6,7,8-tetrahydro-2-naphthalenyl)methyl]-2-furyl}-2-propenoic acid], the EC50 at full length human RXRα is > 1000 nM. In addition, the Ki at hRXRα is > 1000 nM.

Take `CC1(C)CCC(C)(C)c2cc(C3CCCc4oc(C(=O)O)cc43)ccc21` (stereo not drawn) [Example 13, 4-(5,5,8,8-Tetramethyl-5,6,7,8-tetrahydro-2-naphthalenyl)-4,5,6,7-tetrahydro-1-benzofuran-2-carboxylic acid]: on full length human RXRα, the EC50 was > 1000 nM. The Ki at hRXRα is > 1000 nM.

On to `CC1(C)CCC(C)(C)c2cc(Cc3csc(/C=C/C(=O)O)c3)ccc21` [Example 18, (2E)-3-{4-[(5,5,8,8-Tetramethyl-5,6,7,8-tetrahydro-2-naphthalenyl)methyl]-2-thienyl}-2-propenoic acid], for which the EC50 on full length human RXRα is > 1000 nM. At hRXRα, the Ki was > 1000 nM.
